Patent US6710032B1, “In situ formation of CLA” (University of Maryland, priority 1998, dated 2004)

Assays:
[1] = system: C57/B1/6J mice; assay: Example 6: mouse milk fat and milk/fecal fatty acids when fed 18:1 isomer diets; type: in vivo; settings: for Milk fat on day 10 versus day 6 of lactation: isomer about 25% of dietary fat, fed four days, creamatocrit; for Level of the test isomer in milk, % of the fat: day 10, fed the isomer diet
Text: C57/B1/6J mice fed a control diet (10 wt % fat) were switched to one of four isomer diets at day 6 of lactation after milk collection. Approximately 25% of the dietary fat (5 caloric %) during the treatment period was replaced with one of four specific isomers of oleic acid, either cis-9; cis-11; trans-9 or trans-11, other diet components were identical. The mice consumed these diets ad libitum for four days and were milked again on day 10 of lactation. Milk and fecal fatty acid composition was analyzed as fatty acid methyl esters by GC. Specific isomers were identified by relative retention times. Milk fat percentage was determined by the creamatocrit method and differences between day 6 and day 10 fat percentages were evaluated by a paired t-test.
A lactating mouse is milked after injection of oxytocin(0.2 ml of a 1 IU/ml solution) immediately prior to milking. Milking is accomplished by creating a suction through tube 26 and inserting the funnel end 28 or tube 26 onto the teat of a lactating mouse in the upside-down position. As milk is collected into the funnel, a small capillary tube (i.e. the same as that used to collect human blood samples) is manually positioned within the funnel to collect milk by capillary action. Failure to promptly collect the milk will expose the milk to evaporation thus increasing fat content of the sample.

[2] = system: cows; assay: Ingestion of C18 trans 11 fats in cows, milk fat levels; settings: in vivo

Level of the test isomer in milk, % of the fat [1]	Compound	Milk fat on day 10 versus day 6 of lactation [1]	Milk fat on day 10 versus day 6 of lactation ([1]; listed as C18:1 t-11)	Milk fat levels in cows [2]
	CCCCCCCC/C=C\CCCCCCCC(=O)O [Cis-9, cis-9 18:1 fatty acid]	identical fat values on days 6 and 10		
10%	CCCCCC/C=C\CCCCCCCCCC(=O)O [cis-11, cis-11 18:1 fatty acid]	not statistically different		
5.8%	CCCCCCCC/C=C/CCCCCCCC(=O)O [trans-9, trans-9 18:1 fatty acid]	statistically lower		
3%	CCCCCC/C=C/CCCCCCCCCC(=O)O [trans-11, trans-11 18:1 fatty acid]	not statistically different	does not reduce milk fat	do not reduce milk fat levels
